Experimental data reported in patent US8895302B2, “Directed differentiation of primate pluripotent stem cells into functional basal forebrain cholinergic neurons (BFCNs) and medium spiny gabaergic projection neurons” (Wisconsin Alumni Research Foundation, priority 2010, dated 2014).

Columns and labels:
[1] = tested on: hESC-derived cholinergic neurons; assay: Whole-cell patch clamp, spontaneous synaptic currents of hESC-derived BFCNs; type: cell-based, human; details: CNQX 20 μM in bath, BFCNs differentiated 8-10 weeks
Experimental: Whole-cell patch-clamp recordings were made from hESC-derived cholinergic neurons at 8-10 weeks age as previously reported (Johnson et al., 2007). Briefly, the neurons were held at −70 mV to record the spontaneous release and Na+/K+ channel activities. For action potential recording, the cells were held at 0 pA with current-clamp model and the steps of currents from +[…] were injected into cells by the holding electrode. The bath solution consisted of 127 mM NaCl, 1.2 mM KH2PO4, 1.9 mM KCl, 26 mM NaHCO3, 2.2 mM CaCl2, 1.4 mM MgSO4, 10 mM glucose, 290 mM mOsm and 95% O2/5% CO2. Recording pipettes were filled with an intracellular recording solution consisting of 20 mM KCl, 121 mM K^+-gluconate, 10 mM Na^+-HEPES, 10 mM BAPTA, 4 mM Mg2^+-ATP pH 7.2 and 290 mOm. Bicuculline (20 μM; Sigma) or 6-cyano-7-nitroquinoxiline-2,3-dione (CNQX, 20 μM; RBI) was applied to the bath solution to distinguish inhibitory (GABAergic) and excitatory (glutamatergic) response. Biocytin (1%, Sigma) was injected into cells after recording to identify the neuronal identity. An Olympus BX51WI microscope was used to visualize neurons. […] Data were analyzed with pClamp 9.0 (Axon instruments). […]
To determine the functionality of the hESC-derived BFCNs, we first measured the electrophysiological properties of the BFCNs that were differentiated for 8-10 weeks by whole cell patch clamping recording (FIG. 3). […]

[2] = tested on: hESC-derived primitive neural stem cells; assay: RT-qPCR of dorsal/ventral transcription factors in patterned neural stem cells; type: cell-based, human; details: SHH 200 or 0.65 uM of purmorphamine, day 25
Experimental: (§1) The procedure for differentiating hESCs to neuroectodermal cells was the same as described (Li et al., 2005; Zhang et al., 2001). hESCs were differentiated to Pax6-expressing primitive neural stem cells for 10-12 days in a neural induction medium consisting of DMEM/F12, N2 supplement and non-essential amino acids (Pankratz et al., 2007; Zhang et al., 2001). The primitive neural stem cells were then treated with SHH (50-1000 ng/ml) or its small molecule agonist purmorphamine (0.1-1.5 uM, Calbiochem, San Diego, Calif., USA) from day 12 to day 26 to specify ventral progenitors. During this period, neural stem cells grew rapidly and formed neural tube-like rosettes, which were gently blown off at day 15-17 and grown in suspension under the same medium. For neuronal differentiation, neural progenitor clusters were dissociated with Accutase at 37° C. for 5 minutes and plated onto ornithine/laminin-coated coverslips at day 26 in Neurobasal medium.
Total RNA was extracted using Trizol reagent (Invitrogen), and cDNA was reverse-transcribed using the SuperScript III First-Strand (Invitrogen). Real-time PCR was performed using the Bio-Rad MyiQ real-time PCR detection system as described (Du et al., 2009).
Basal forebrain cholinergic neurons (BFCNs) are differentiated from progenitors in the MGE and POa/AEP domains that express Nkx2.1 (Wilson and Rubenstein, 2000; Zhao et al., 2003). […]

[3] = tested on: hESC-derived primitive neural stem cells; assay: Patterning of hESC-derived primitive neural stem cells to ventral telencephalic progenitors (immunocytochemistry, FACS, Western blotting); type: cell-based, human
Experimental: as §1
Immunocytochemical staining on coverslip cultures and free-floating brain sections was performed as previously described (Li et al., 2005; Yang et al., 2008). The images were visualized using a Nikon TE600 fluorescence microscope (Nikon Instruments, Melville, N.Y., USA) or a Nikon C1 laser-scanning confocal microscope.
Protein samples were collected at day 25 after differentiation. Western blot analysis was performed as described (Li et al., 2009). Proteins (25 μg) were separated by 10% acrylamide gel and blotted with antibodies against Nkx2.1 (1:2,000, Mouse IgG, Chemicon & Millipore), Pax6 (1:4,000, Rabbit IgG, Covance), and β-actin (1:4,000, Mouse IgG, Sigma).
To quantify the differentiation efficiency of forebrain progenitors, neural progenitor spheres were dissociated into single cells and quantified by fluorescent activated cell sorting (FACS) (LaVaute et al., 2009). For quantifying differentiated cholinergic neurons, the neural progenitor spheres were digested with Accutase (Innovation Cell Technology) into small clusters and plated on coverslips for immunostaining as previous described (Li et al., 2005; Hu et al., 2009). Optical fields of cultures were randomly selected, and the neuronal cells and total cells (Hoechst stained) were counted using a Metamorph software. All the experiments were triplicated and the results were reproduced in two different cell lines (H1 and H9). For statistical analysis, 2-side t-test was used.
hESCs were first differentiated to Pax6-expressing pNSCs in a chemically defined medium as previously described (Johnson et al., 2007; Li et al., 2005; Zhang et al., 2001). We first determined the time course of SHH action by applying SHH for a week at day 10, 13, and 17 and by quantifying cells that express Nkx2.1, an MGE transcription factor.
Basal forebrain cholinergic neurons (BFCNs) are differentiated from progenitors in the MGE and POa/AEP domains that express Nkx2.1 (Wilson and Rubenstein, 2000; Zhao et al., 2003). […] In contrast, the expression of dorsal telencephalic transcription factors, Pax6 and Emx1, was decreased (FIG. 1B). Immunostaining and Western blotting analyses confirmed that Nkx2.1-expressing cell population increased progressively, with 97±1.3% of the cells being Nkx2.1 positive in the presence of 1000 ng/ml of SHH, whereas the population of Pax6 positive dorsal progenitors decreased, to less than 0.01% under 1000 ng/mlof SHH (FIG. 1C, D, E).

striatum = assay: Unilateral QA-induced striatal lesion; type: in vivo, SCID mice
Experimental: Twenty-four male SCID mice (10 weeks of age) were anesthetized with 1-2% isoflurane mixed in oxygen, and received stereotaxic injection of 2 μl 0.1M quinolinic acid (QA, P63204; Sigma, in saline with 0.2 mg/ml ascorbic acid) in the right striatum at the coordinates (anterior-posterior (AP)=−0.7 mm, lateral (L)=+1.7 mm, vertical (V)=−3.2 mm) to create the unilateral lesion (Hansson et al., 1999).
To assess the function of in vitro produced human medium spiny GABA projection neurons, we created a unilateral QA-induced striatal lesion model in immune deficient SCID mice (Sanberg et al., 1989; Reynolds et al., 2006). Four weeks post injection of QA, majority of neurons, as labeled by NeuN, including FoxP2 and DARPP32 expressing GABA projection neurons in the striatum were lost, resulting in a smaller striatum in the lesion side as compared to the non-lesion side. Accompanying the loss of neurons, there was a significant increased level of GFAP expression in astrocytes.

[4] = SHH 200 ng/ml or purmorphamine 0.65 uM, day 30

For N#Cc1cc2[nH]c(=O)c(=O)[nH]c2cc1[N+](=O)[O-] [CNQX, 6-cyano-7-nitroquinoxiline-2,3-dione], the spontaneous synaptic activity [1] was “partially blocked”.

c1ccc2c(Oc3nc(Nc4ccc(N5CCOCC5)cc4)c4ncn(C5CCCCC5)c4n3)cccc2c1 [purmorphamine] was tested, and the “Gsh2 mRNA versus control group (RT-qPCR)” value [2] was “upregulated expression”, the “Pax6 mRNA versus control group (RT-qPCR)” value [2] was “downregulation” and the “GABA interneuron progenitor marker Nkx2.1 (immunostaining)” value [3, 4] was “minimal expression”. The “cortical marker Pax6 (immunostaining)” value [3, 4] was “decreased expression”, the “striatal GABA neuron progenitor markers Meis2, Mash1 and Otx2 (immunostaining)” value [3, 4] was “increased expression” and the “purmorphamine concentration equivalent to SHH at 200 ng/ml for GABAergic progenitors” value ([3]; pNSCs treated at day 10-12) was ~0.65 µM. For the same compound, the “purmorphamine concentration equivalent to SHH at 500 ng/ml for cholinergic progenitors” value ([3]; pNSCs treated at day 10-12) was ~1 µM.

With O=C(O)c1cccnc1C(=O)O [QA, quinolinic acid] the “stride length on the right limbs versus control animals that received aCSF (Treadscan)” value (striatum; lesioned mice) was “longer stride length” and the “behavioural outcome of unilateral striatal lesion” value (striatum; rotarod, open field, Treadscan) was “locomotion deficits typical of HD”.
